Patent publication US20240158425A1, “MODIFIED ADENINES” (NUCLERA LTD, priority 2021, published 2024)

Key:
Assay type in all cases: physicochemical
[1] = Stability in Oxime Removal Solution (1×ORS) buffer, monitored by LC/MS; conditions: 1×ORS buffer (methoxyamine), 24 h at 37 deg C.
Description: (§1) Analytical LC/MS was performed on the Agilent 1100 Series system. Nucleosides were analysed using gradient of acetonitrile in 20 mM NH4OAc, pH 4.5. The 1 M stock solution of NH4OAc, pH 4.5 was prepared by dissolving NH4OAc (g) in H2O and adjusted to pH 4.5 with acetic acid. This was further diluted with water to the concentrations required for the chromatography.
(§2) Column: Ascentis Express C18 15×4.6 mm, 5 μm; Column temperature 30° C., Flow rate 1 mL/min, UV detection 254 nm.
Stock solution of ORS buffer (2×) was prepared from methoxyamine hydrochloride (60 mg, 0.71 mmol), water (MilliQ) (200 uL), pH 5.5 sodium acetate (200 uL) and 10 M sodium hydroxide (53.4 uL) and water (1.4 mL). 2-chloro-2′-deoxyadenosine (1 mg) was dissolved in milliQ water (0.5 mL) and 2×ORS (0.5 mL) was added. The resultant solution was incubated at 37 deg C. and the stability was monitored at intervals using LC/MS. […] 2. Stability of 2-fluoro-2′-deoxyadenosine in ORS Buffer
2-fluoro-2′-deoxyadenosine (1 mg) was dissolved in milliQ water (0.5 mL) and 2×ORS (0.5 mL) was added. The resultant solution was incubated at 37 deg C. and the stability was monitored at intervals using LC/MS.

[2] = Stability of 2-halogenated 2′-deoxyadenosines and 2′-deoxyadenosine in NDS buffer (sodium nitrite, pH 5.5), LC/MS; conditions: for Reaction in NDS buffer (products formed; deaminated nucleoside): LC/MS
Description: as §1, §2
2 M sodium acetate pH 5.5 buffer was made from sodium acetate trihydrate (2.72 g) made up to 9.5 mL with water, then titrated to pH 5.5 with acetic acid, and finally made up to 10 mL. NDS buffer was made from acetate solution (3.934 mL), sodium nitrite (380 mg, 5.5 mmol) and water (3.934 mL), then adjusted to pH 5.5 with 10 M sodium hydroxide (˜1 drop required). 2-chloro-2′-deoxyadenosine (0.5 mg), 2-fluoro-2′-deoxyadenosine (0.5 mg) and 2′-deoxyadenosine (0.5 mg) as a control were respectively placed in three vials and each dissolved in 1 mL solution of NDS buffer. The stability was monitored at intervals using LC/MS.

[3] = Stability of 8-aza-adenosine and 2′-deoxyadenosine in NDS buffer, LC/MS; conditions: for Reaction in NDS buffer (products formed; deaminated nucleoside): LC/MS
Description: A solution of NDS made up from sodium nitrite, sodium acetate pH 5.5) and titrated to pH 5.5 with 10 M NaOH was obtained (2 mL).
1 mL aliquots of this solution were added to 8-aza-2′-dA (0.5 mg) and 2′-dA (0.5 mg, as a control to compare how additional N atom at 8 position of nucleobase affects reactivity NH2—C6 group with NDS) and analysed at intervals using LC/MS.

[4] = buffer, 24 h, 0.5 mg/mL, pH 5.5
[5] = buffer, 48 h, 0.5 mg/mL, pH 5.5
[6] = buffer, 120 h, 0.5 mg/mL, pH 5.5

Row | SMILES | Reaction in NDS buffer (products formed; deaminated nucleoside) ([2]; NDS buffer) | In (nucleoside peak area %) ([3]; 24 h) | Remaining nucleoside, peak area % ([3]; 24 h) [peak area %] | In (nucleoside peak area %) ([3]; 96 h) | Remaining nucleoside, peak area % ([3]; 96 h) [peak area %] | In (nucleoside peak area %) ([3]; 120 h) | Remaining nucleoside, peak area % ([3]; 120 h) [peak area %] | In (nucleoside peak area %) ([3]; 146 h) | Remaining nucleoside, peak area % ([3]; 146 h) [peak area %] | Reaction in NDS buffer (products formed; deaminated nucleoside) [3] | also measured
1 | Nc1nc(Cl)nc2c1ncn2[C@H]1C[C@H](O)[C@@H](CO)O1 [2-Cl-dA, 2-chloro-2′-deoxyadenosine] | react in the NDS buffer giving rise to 1 product |  |  |  |  |  |  |  |  |  | Stability in 1×ORS buffer (formation of products) [1]: did not lead to any products; In (remaining nucleoside) ([2]; NDS buffer, 24 h): 4.599; Remaining nucleoside ([2]; NDS buffer, 24 h): 99.42%; In (remaining nucleoside) ([2]; NDS buffer, 48 h): 4.592; Remaining nucleoside ([2]; NDS buffer, 48 h): 98.66%; In (remaining nucleoside) ([2]; NDS buffer, 120 h): 4.57; Remaining nucleoside ([2]; NDS buffer, 120 h): 96.54%; Deamination in NDS buffer, times slower than 2′-dA ([2]; NDS buffer, same conditions as 2′-dA): 5.5 ×
2 | Nc1ncnc2c1nnn2[C@@H]1O[C@H](CO)[C@@H](O)[C@H]1O [8-aza-A, 8-aza-adenosine] |  | 4.592 | 98.65 | 4.538 | 93.49 | 4.519 | 91.74 | 4.5 | 90 | react in the NDS buffer giving rise to 1 product | Deamination in NDS buffer, times slower than 2′-dA ([3]; same conditions as 2′-dA): 3.2 ×
3 | Nc1ncnc2c1ncn2[C@H]1C[C@H](O)[C@@H](CO)O1 [dA, 2′-deoxyadenosine] | react in the NDS buffer giving rise to 1 product | 4.545 | 94.15 | 4.352 | 77.6 | 4.29 | 73 | 4.248 | 70 | react in the NDS buffer giving rise to 1 product | In (remaining nucleoside) [2, 4]: 4.571; Remaining nucleoside [2, 4]: 96.66%; In (remaining nucleoside) [2, 5]: 4.531; Remaining nucleoside [2, 5]: 92.85%; In (remaining nucleoside) [2, 6]: 4.416; Remaining nucleoside [2, 6]: 82.77%
